Test results taken from the NIST ThermoML archive (doi:10.1016/j.jct.2017.03.040).

Assay: mn = molality of the nth substance listed, in mol/kg
Conditions: 100 kPa, Liquid; for speed of sound: Frequency=3 MHz, Single path-length method; for mass density: Vibrating tube method

CC(=O)N[C@@H](CS)C(=O)O [N-acetyl-L-cysteine] + O
Conditions	mass density, 288.15 K [kg/m3]	mass density, 298.15 K [kg/m3]	mass density, 308.15 K [kg/m3]	mass density, 318.15 K [kg/m3]	speed of sound, 288.15 K [m/s]	speed of sound, 298.15 K [m/s]	speed of sound, 308.15 K [m/s]	speed of sound, 318.15 K [m/s]
m1 = 0.09902	1003.53	1001.37	998.26	994.33	1472.9	1501.8	1523.8	1539.8
m1 = 0.1981	1007.96	1005.7	1002.49	998.44	1479.4	1507	1527.9	1543.2
m1 = 0.2976	1012.41	1010.05	1006.74	1002.57	1485.8	1512.3	1532.1	1546.7
m1 = 0.397	1016.85	1014.39	1010.98	1006.7	1492.3	1517.5	1536.3	1550.2
m1 = 0.4992	1021.42	1018.86	1015.35	1010.94	1498.9	1522.9	1540.6	1553.8
m1 = 0.5991	1025.88	1023.22	1019.61	1015.09	1505.4	1528.2	1544.8	1557.3
m1 = 0.6903	1029.96	1027.21	1023.51	1018.87	1511.3	1533	1548.6	1560.5
